Key:
Assay type in all cases: in vivo
[1] = system: transgenic soybean plants expressing CYP34; test: Icafolin herbicide injury rating, greenhouse spray, CYP34 soybean; conditions: Table 10
Excerpt: The codon-optimized gene was placed into plant transformation cassette with the CYP34 coding sequence operably linked to a constitutive expression element comprising the promoter, leader, and intron of Arabidopsis thaliana Ubiquitin 3 (SEQ ID NO:14) and a Medicago truncatula photosystem II terminator (SEQ ID NO:15). A plant transformation vector was created, comprising the CYP34 gene cassette and an aadA selectable marker expression cassette, which confers resistance to the antibiotics spectinomycin and streptomycin. Soybean cultivar AG3555 seed-derived embryo explants were transformed with the vector described above by Agrobacterium-mediated transformation using known methods in the art, and positive-transformed plantlets were selected based on growth in the presence of spectinomycin. Plantlets comprising single copy events were grown in the greenhouse to produce R1 seeds. R1 plants were subsequently selected for the homozygous CYP positive plants, either by molecular analysis of young leaf tissue or by seed chipping prior to planting. These selected plants were then screened for tolerance to the icafolin herbicide.
Herbicide tolerance screening was performed by selecting R1 plants at roughly the V2-V3 developmental stage and applying the icafolin herbicide in a track sprayer under standard greenhouse conditions. Two independent transgenic events per transgene were selected for screening. The herbicide was formulated with 1% v/v methylated seed oil (MSO) and 2.5% v/v ammonium sulfate (AMS) and sprayed with a XR nozzle at 15 gallons per […] (GPA) to mimic field conditions. The icafolin formulation was sprayed at two rates: 5 g active ingredient (ai)/hectare (ha) and 25 g ai/ha. The treated soybean plants were returned to the greenhouse following spray application and allowed to grow under standard conditions. The plants were rated for herbicide injury at approximately 13 and 21 days after treatment (DAT). Untreated transgenic plants and control (wild-type) plants were used for phenotypic comparison. The herbicide injury rating accounts for plant malformation, stunting, chlorosis, necrosis, and plant death relative to the untreated control plants. An injury rating of approximately 90% or above indicates nearly complete plant death. An injury rating of less than 30% indicates partial tolerance and an injury rating of less than 20% indicates good tolerance. Injury ratings were collected and analyzed, and photographs of representative plants were taken.

[2] = system: transgenic soybean plants expressing CYP13; test: Icafolin herbicide injury rating, greenhouse spray, CYP13 soybean; conditions: for Percent Injury 15 DAT / Percent injury 21 DAT: Experiment 1
Excerpt: (§1) The codon-optimized polynucleotide sequences were placed into plant transformation cassettes with each CYP coding sequence operably-linked to a constitutive expression element comprising the promoter, leader, and intron sequence of Arabidopsis thaliana Ubiquitin 3 (SEQ ID NO:14) and a Medicago truncatula photosystem II terminator (SEQ ID NO:15). Four plant transformation vectors were created, each comprising one of the CYP gene expression cassettes and an aadA selectable marker expression cassette, conferring resistance to the antibiotics spectinomycin and streptomycin. Soybean cultivar AG3555 seed-derived embryo explants were transformed with the vectors by Agrobacterium-mediated transformation using known methods in the art, and transformed plantlets were selected based on growth in the presence of spectinomycin. Plantlets comprising single copy events were grown in the greenhouse to produce R1 seeds. R1 plants were subsequently selected for homozygous CYP-positive plants, either by molecular analysis of young leaf tissue or by seed chipping prior to planting. These selected plants were then screened for tolerance to icafolin herbicide.
(§2) Herbicide tolerance screens were performed by selecting R1 plants at roughly the V2-V3 developmental stage and applying icafolin herbicide with a track sprayer under standard greenhouse conditions. Two independent transgenic events per transgene were screened. The herbicide was formulated with 1% v/v methylated seed oil (MSO) and 2.5% v/v ammonium sulfate (AMS) and sprayed with a XR nozzle at 15 gallons per […] (GPA) to mimic field conditions. The icafolin used in this Example and in the experiments described in Examples 2-4 was a mixture of the methyl ester forms of the 2R, 4R and 2S, 4S isomers. The icafolin formulation was sprayed at two rates: 5 g active ingredient (ai)/hectare (ha) and 25 g ai/ha. The herbicide treated soybean plants were returned to the greenhouse following spray application and allowed to grow under standard conditions. Plants were rated for herbicide injury at approximately 14 and 21 days after treatment (DAT). Untreated transgenic plants and control (wild-type) plants were used for phenotypic comparison. The herbicide injury rating accounts for plant malformation, stunting, chlorosis, necrosis, and plant death relative to the untreated control plants. An injury rating of approximately 90% or above indicates nearly complete plant death. An injury rating of less than 30% indicates partial tolerance, and an injury rating of less than 20% indicates good tolerance. Injury ratings were collected and analyzed, and photographs of representative plants were taken.

[3] = system: transgenic soybean plants expressing CYP14; test: Icafolin herbicide injury rating, greenhouse spray, CYP14 soybean
Excerpt: as §1, §2

[4] = CYP34 Event 326, 5 g ai/ha icafolin
[5] = CYP34 Event 326, 25 g ai/ha icafolin
[6] = CYP34 Event 356, 5 g ai/ha icafolin
[7] = CYP34 Event 356, 25 g ai/ha icafolin
[8] = CYP13 Event 943, 5 g ai/ha icafolin
[9] = CYP13 Event 943, 25 g ai/ha icafolin
[10] = CYP13 Event 982, 5 g ai/ha icafolin
[11] = CYP13 Event 982, 25 g ai/ha icafolin
[12] = CYP14 Event 267, 5 g ai/ha icafolin, Experiment 2
[13] = CYP14 Event 267, 5 g ai/ha icafolin, Experiment 1
[14] = CYP14 Event 267, 25 g ai/ha icafolin, Experiment 2
[15] = CYP14 Event 267, 25 g ai/ha icafolin, Experiment 1
[16] = CYP14 Event 280, 5 g ai/ha icafolin, Experiment 2
[17] = CYP14 Event 280, 25 g ai/ha icafolin, Experiment 2
[18] = CYP14 Event 309, 5 g ai/ha icafolin, Experiment 2
[19] = CYP14 Event 309, 5 g ai/ha icafolin, Experiment 1
[20] = CYP14 Event 309, 25 g ai/ha icafolin, Experiment 2
[21] = CYP14 Event 309, 25 g ai/ha icafolin, Experiment 1
[22] = CYP14 Event 324, 5 g ai/ha icafolin, Experiment 2
[23] = CYP14 Event 324, 25 g ai/ha icafolin, Experiment 2

SMILES: C=C[C@]1(C(=O)N[C@H]2CO[C@@H](C(=O)OC)C2)CC(c2cc(F)cc(F)c2)=NO1 (relative stereo) [icafolin, methyl(2R*,4R*)-4-[[(5S)-3-(3,5-difluorophenyl)-5-vinyl-4H-isoxazole-5-carbonyl]amino]tetrahydrofuran-2-carboxylate]
- Percent Injury 13 DAT [1, 4]: 12.5%
- Percent injury 21 DAT [1, 4]: 9.2%
- Percent Injury 13 DAT [1, 5]: 48.3%
- Percent injury 21 DAT [1, 5]: 36.7%
- Percent Injury 13 DAT [1, 6]: 13.3%
- Percent injury 21 DAT [1, 6]: 12.5%
- Percent Injury 13 DAT [1, 7]: 35.8%
- Percent injury 21 DAT [1, 7]: 30.8%
- Percent Injury 15 DAT [2, 8]: 42%
- Percent injury 21 DAT [2, 8]: 59%
- Percent Injury 15 DAT [2, 9]: 74%
- Percent injury 21 DAT [2, 9]: 80%
- Percent Injury 15 DAT [2, 10]: 41%
- Percent injury 21 DAT [2, 10]: 52%
- Percent Injury 15 DAT [2, 11]: 69%
- Percent injury 21 DAT [2, 11]: 80%
- Tolerance to icafolin ([2]; in vivo): did not show any noticeable tolerance
- Percent Injury 14 DAT [3, 12]: 32%
- Percent Injury 15 DAT [3, 13]: 14%
- Percent injury 21 DAT [3, 13]: 12%
- Percent injury 21 DAT [3, 12]: 20%
- Percent Injury 14 DAT [3, 14]: 79%
- Percent Injury 15 DAT [3, 15]: 39%
- Percent injury 21 DAT [3, 15]: 47%
- Percent injury 21 DAT [3, 14]: 57%
- Percent Injury 14 DAT [3, 16]: 19%
- Percent injury 21 DAT [3, 16]: 12%
- Percent Injury 14 DAT [3, 17]: 64%
- Percent injury 21 DAT [3, 17]: 35%
- Percent Injury 14 DAT [3, 18]: 37%
- Percent Injury 15 DAT [3, 19]: 33%
- Percent injury 21 DAT [3, 19]: 36%
- Percent injury 21 DAT [3, 18]: 22%
- Percent Injury 14 DAT [3, 20]: 90%
- Percent Injury 15 DAT [3, 21]: 71%
- Percent injury 21 DAT [3, 21]: 81%
- Percent injury 21 DAT [3, 20]: 89%
- Percent Injury 14 DAT [3, 22]: 48%
- Percent injury 21 DAT [3, 22]: 30%
- Percent Injury 14 DAT [3, 23]: 75%
- Percent injury 21 DAT [3, 23]: 66%
- Tolerance to icafolin ([3]; in vivo): unexpected tolerance
- injury ([3]; in vivo): less than 30%
